Like-named read-outs stand apart in the source and are kept apart here.
What was measured:
physchem [1] = assay: physchem
Procedure: Nanoparticle formulation of compound of Formula XVI. […] (cold) or at 20-25° C. (warm) and stored refrigerated or frozen with 10% sucrose.

physchem [2] = assay: physchem; remark: listed apart in the source

Compound	saturated solubility in ethyl acetate (EA) (physchem [1])	solubility (physchem [1]; organic solvent or mixture) [µg/mL]	solubility (physchem [2]) [µg/mL]	aqueous solubility (Aqueous solubility) [µg/mL]
CCCCCCCCCCCCCCCCCC(=O)[O][Pt]([NH2])([NH2])[n+]1cc2ccccc2c2ccccc21 [Compound 27, phenantriplatin (stearate) nitrate]	low	1500	< 100	–
phenanthriplatin [phenantriplatin]	–	–	–	5000

Reference: patent publication US20140088066A1, “PLATINUM COMPOUNDS, COMPOSITIONS AND METHODS FOR THE TREATMENT OF CANCER” (Blend Therapeutics, priority 2012, published 2014)
